Data set [1] has as its system Enterovirus A71. In words: Antiviral activity against enterovirus A71 infected in human HeLa cells assessed as decrease in viral titer by inhibition of Pim1. Also on record: scale not given: the % may be the effect or the level left. It is filed as functional.
The nature of data set [2]: in vitro. Conditions: human, hek-293t.
Data set [3] concerns Enterovirus A71. In words: Antiviral activity against enterovirus A71 infected in human HeLa cells assessed as decrease in viral mRNA level at 2 uM. It is filed as functional. Also on record: scale not given: the % may be the effect or the level left.
The subject of data set [4] is Enterovirus A71. The data set can be described thus: Antiviral activity against enterovirus A71 infected in human RD cells assessed as decrease in viral mRNA level at 2 uM. It is filed as functional. Also noted: scale not given: the % may be the effect or the level left.
Data set [5] has as its system Enterovirus A71. The data set can be described thus: Antiviral activity against enterovirus A71 infected in human RD cells assessed as decrease in viral titer by inhibition of Pim1. It is filed as functional. Also on record: scale not given: the % may be the effect or the level left.
Data set [6] concerns Enterovirus A71. The data set can be described thus: Antiviral activity against enterovirus A71 assessed as reduction in viral mRNA level at 2 uM relative to control. Also on record: scale not given: the % may be the effect or the level left. It is filed as functional.
Data set [7] is described as follows: in vitro. As to conditions: human.
The subject of a further data set is dengue virus type 4. The data set can be described thus: microbe, parasite or virus in culture. It is filed as functional, organism-based.
In another data set the test system is dengue virus type 2. In words: microbe, parasite or virus in culture. It is filed as functional, organism-based.
The next data set relates to dengue virus type 1. In words: microbe, parasite or virus in culture. It is filed as functional, organism-based.
The test system of a further data set is dengue virus type 3. The data set can be described thus: microbe, parasite or virus in culture. It is filed as functional, organism-based.
Data set [8] is described as follows: in vitro. As to conditions: human, Huh-7.5.1 cells.
The subject of data set [9] is Human alphaherpesvirus 1. In words: Antiviral activity against HSV-1 KOS strain infected in 1 hr pretreated mouse L929 cells assessed as cell viability by cell titre-glo luminescent kit method. It is filed as functional, organism-based. As to conditions: Human alphaherpesvirus 1, KOS.
Data set [10] in a line: Cytotoxicity against 24ST1NLESG cells (unknown origin). It is filed as toxicity, cell-based.
Data set [11] has as its system Human alphaherpesvirus 1. In words: Antiviral activity against HSV-1-induced necrosis. It is filed as functional, organism-based.
Data set [12] deals with Cyclin-dependent kinase 9 (Homo sapiens, UniProt P50750). The data set can be described thus: Inhibition of CDK9 (unknown origin) incubated for 2 hrs by measuring remaining ATP.
Chain of Cyclin-dependent kinase 9 (P50750 whole entry): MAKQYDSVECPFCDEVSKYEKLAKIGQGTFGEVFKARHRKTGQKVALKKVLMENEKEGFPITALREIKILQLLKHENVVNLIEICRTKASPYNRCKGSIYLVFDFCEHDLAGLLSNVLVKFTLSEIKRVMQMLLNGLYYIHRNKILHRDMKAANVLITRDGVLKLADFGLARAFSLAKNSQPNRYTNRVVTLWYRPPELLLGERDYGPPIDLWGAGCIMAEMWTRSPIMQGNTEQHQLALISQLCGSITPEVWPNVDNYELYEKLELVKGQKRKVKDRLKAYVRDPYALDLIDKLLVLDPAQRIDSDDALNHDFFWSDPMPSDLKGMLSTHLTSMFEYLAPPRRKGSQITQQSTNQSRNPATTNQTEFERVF
Data set [13] concerns Human alphaherpesvirus 1. The data set can be described thus: microbe, parasite or virus in culture. It is filed as functional, organism-based.
The nature of data set [14]: Cytotoxicity against human HepG2 cells. It is filed as toxicity, cell-based.
Data set [15] concerns Hepatitis B virus. In words: microbe, parasite or virus in culture. It is filed as functional, organism-based. Conditions: Hepatitis B virus.
The subject of data set [16] is Human alphaherpesvirus 1. In words: Antiviral activity against ACV-resistant HSV-1 in African green monkey Vero cells measured after 2 days. It is filed as functional, organism-based. As to conditions: Human alphaherpesvirus 1, Vero, 48 h.
Data set [17] relates to Hepatitis B virus. The data set can be described thus: Antiviral activity against HBV infected in human HepG2-hNTCP cells. It is filed as functional, organism-based.
In data set [18] the test system is Human alphaherpesvirus 1. The data set can be described thus: In vivo antiviral activity against HSV-1 infected in organism (unknown origin) assessed as suppression of skin lesions at 10% ointment treatment. It is filed as functional.
The nature of data set [19]: Cytotoxicity against human PC-3 cells. It is filed as toxicity, cell-based.
Data set [20] is described as follows: Cytotoxicity against human MCF7 cells. It is filed as toxicity, cell-based.
Another data set concerns Zaire ebolavirus. In words: microbe, parasite or virus in culture. It is filed as functional, organism-based. As to conditions: dose 5 µM.
Data set [21] can be described thus: in vitro. Conditions: human, Huh-7 cells.
For a further data set, the system named is Chikungunya virus. The data set can be described thus: microbe, parasite or virus in culture. It is filed as functional, organism-based.
The next data set deals with Junin virus. The data set can be described thus: microbe, parasite or virus in culture. It is filed as functional, organism-based. As to conditions: Mammarenavirus juninense.
Data set [22] is described as follows: in vitro. Conditions: chlorocebus sabaeus, Vero cells.
Data set [23] can be described thus: Cytotoxicity against human A549 cells. It is filed as toxicity, cell-based.
A short description of data set [24]: in vitro. As to conditions: human, bxpc-3.
In data set [25] the test system is Influenza A virus. The data set can be described thus: microbe, parasite or virus in culture. It is filed as functional, organism-based.
Data set [26] can be described thus: Toxicity in mouse infected with Influenza A virus assessed as lethality at 75 mg/kg, po. It is filed as organism-based. Conditions: in vivo.
Data set [27] has as its system Influenza A virus. The data set can be described thus: microbe, parasite or virus in culture. It is filed as functional, organism-based. The source holds these as a separate data set.
Data set [28] deals with SARS-CoV-2. The data set can be described thus: Antiviral activity against SARS-Cov-2 infected in 1 hr pretreated African green monkey Vero E6 cells assessed as inhibition of viral replication. It is filed as functional, organism-based. Conditions: Severe acute respiratory syndrome coronavirus 2, Vero C1008.
The subject of data set [29] is SARS-CoV-2. The data set can be described thus: Antiviral activity against SARS-CoV-2 assessed as inhibition of viral replication. It is filed as functional, organism-based. Conditions: Severe acute respiratory syndrome coronavirus 2.
In data set [30] the test system is Marburgvirus. In words: microbe, parasite or virus in culture. It is filed as functional, organism-based. Conditions: Orthomarburgvirus.
The subject of data set [31] is Marburgvirus. In words: microbe, parasite or virus in culture. It is filed as functional, organism-based. As to conditions: Orthomarburgvirus, MDM.
Data set [32] deals with SARS-CoV-2. In words: microbe, parasite or virus in culture. It is filed as functional, organism-based. Conditions: Severe acute respiratory syndrome coronavirus 2.
Data set [33] has as its system Ebolavirus. In words: microbe, parasite or virus in culture. It is filed as functional, organism-based. As to conditions: Orthoebolavirus, MDM.
Data set [34] is described as follows: in vitro. As to conditions: chlorocebus sabaeus, Vero E6 cells.
The test system of data set [35] is Ebolavirus. The data set can be described thus: microbe, parasite or virus in culture. As to conditions: Orthoebolavirus. It is filed as functional, organism-based.
Data set [36] deals with AP2-associated protein kinase 1 (Homo sapiens, UniProt Q2M2I8).
Chain of AP2-associated protein kinase 1 (Q2M2I8 whole entry): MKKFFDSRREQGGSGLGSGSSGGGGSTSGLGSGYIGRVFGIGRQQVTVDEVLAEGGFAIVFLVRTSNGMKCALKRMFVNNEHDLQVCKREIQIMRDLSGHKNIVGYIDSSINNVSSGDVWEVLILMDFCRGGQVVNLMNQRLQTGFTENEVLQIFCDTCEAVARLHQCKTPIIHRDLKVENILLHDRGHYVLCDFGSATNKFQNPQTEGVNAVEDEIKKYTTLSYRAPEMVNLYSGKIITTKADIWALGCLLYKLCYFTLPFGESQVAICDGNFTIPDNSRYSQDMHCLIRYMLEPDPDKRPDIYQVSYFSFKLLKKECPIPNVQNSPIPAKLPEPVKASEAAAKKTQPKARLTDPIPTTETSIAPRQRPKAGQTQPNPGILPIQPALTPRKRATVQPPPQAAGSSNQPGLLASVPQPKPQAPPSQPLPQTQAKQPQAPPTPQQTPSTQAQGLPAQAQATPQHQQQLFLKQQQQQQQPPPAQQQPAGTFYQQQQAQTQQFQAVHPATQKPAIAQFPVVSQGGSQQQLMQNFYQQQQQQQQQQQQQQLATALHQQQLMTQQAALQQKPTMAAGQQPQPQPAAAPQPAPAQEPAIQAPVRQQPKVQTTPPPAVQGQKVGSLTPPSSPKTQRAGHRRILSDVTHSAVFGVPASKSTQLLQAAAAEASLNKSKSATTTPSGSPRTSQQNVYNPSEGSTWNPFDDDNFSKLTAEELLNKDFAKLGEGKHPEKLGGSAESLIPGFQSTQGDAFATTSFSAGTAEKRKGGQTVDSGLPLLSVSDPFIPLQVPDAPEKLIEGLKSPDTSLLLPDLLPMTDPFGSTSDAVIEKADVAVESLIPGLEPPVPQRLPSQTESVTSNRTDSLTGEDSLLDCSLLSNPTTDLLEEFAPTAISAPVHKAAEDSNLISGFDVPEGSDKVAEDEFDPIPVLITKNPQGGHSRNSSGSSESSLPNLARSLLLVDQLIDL
Data set [37] deals with SARS-CoV-2. The data set can be described thus: Antiviral activity against SARS-CoV-2 assessed as reduction of viral load at 400 to 800 nM. It is filed as functional, Severe acute respiratory syndrome coronavirus 2. Also noted: scale not given: the % may be the effect or the level left. Conditions: dose 400-800 nM.
A short description of data set [38]: Cytotoxicity against osteoblast cells (unknown origin). It is filed as toxicity, cell-based, Calvarial osteoblast.
For data set [39], the system named is SARS-CoV-2. The data set can be described thus: Antiviral activity against SARS-CoV-2 assessed as reduction of viral load at 400 nM relative to control. It is filed as functional, Severe acute respiratory syndrome coronavirus 2. Also on record: scale not given: the % may be the effect or the level left.
A short description of data set [40]: Cytotoxicity against liver spheroids (unknown origin). It is filed as toxicity, tissue-based.
For another data set, the system named is Zika virus. The data set can be described thus: Antiviral activity against ZIKV at 1 uM relative to control. It is filed as functional.
Data set [41] in a line: in vitro. Conditions: human, sertoli cell.

One may read the EC50 as the concentration at which the effect is half-maximal. Broadly, the IC50 is the concentration at which inhibition is half-maximal. In general, inhibition refers to the share of the control response that was lost under treatment.

Each structure is given as a SMILES string.

On to `CN1CCCN(C(=O)c2cccc(-c3ccc(/C=C4/C(=O)Nc5ccc(Cl)cc54)o3)c2)CC1`, for which the Activity is 50% with Enterovirus A71 [1]; 70% with Enterovirus A71 [3]; 70% with Enterovirus A71 [4]; 50% in the data set on Enterovirus A71 [5]; 70% in the data set with Enterovirus A71 [6]. Further, the CC50 in “in vitro [2]” and in “in vitro [7]” (hela) was greater than 8000 nM in each case.

For `COc1ccc(CC(N)c2csc(Nc3ncccn3)n2)cc1` (stereo not given), the EC50 came out at 5000 nM with dengue virus type 4, 7600 nM in the data set on dengue virus type 2, 900 nM in the data set with dengue virus type 1 and 2600 nM in the data set with dengue virus type 3. This molecule returned a CC50 in the data set “in vitro [8]” greater than 100000 nM.

Consider `O=C1NCCc2[nH]c(-c3ccncc3)cc21`, for which the IC50 in the data set with Human alphaherpesvirus 1 [9] and in the data set on Human alphaherpesvirus 1 [11] was 1860 nM throughout. For the same molecule, the CC50 in [10] came to 1000 nM.

As to `Fc1ccc(N2CCCCC2)c(NC(=S)c2ccncc2)c1`, the half-inhibitory concentration (IC50) in data set [12] amounted to 5800 nM; in the data set on Human alphaherpesvirus 1 [16], 690 nM; in the data set with Hepatitis B virus [17], 330 nM. Moreover, the EC50 with Human alphaherpesvirus 1 [13] turned out to be 690 nM; in the data set on Hepatitis B virus [15] it was 330 nM. Further, the CC50 in [14] is greater than 50000 nM; in the data set “in vitro [7]” (HeLa cells), greater than 10000 nM. Also, in the data set with Human alphaherpesvirus 1 [18], the Activity came out at 100%.

As to `Ic1cccc(/C=N/Nc2nc(N3CCOCC3)nc(N(c3ccccc3)c3ccccc3)n2)c1`, the CC50 in data set [19] and in data set [20] was greater than 10000 nM each time. The molecule further showed an inhibition at 5 µM in the data set with Zaire ebolavirus of 100%.

The molecule `CC(C)c1ccc(NC(=O)c2csc(C(O)C(C)C)n2)cc1` (stereo not given) had a CC50 in “in vitro [21]” greater than 50000 nM. In the data set with Chikungunya virus, this molecule gave an EC50 of 2200 nM.

On to `C/C(O)=C(/C#N)C(=O)Nc1ccc(C(F)(F)F)cc1`, for which, in the data set with Junin virus, the EC50 worked out at 16000 nM. Moreover, the CC50 in “in vitro [22]” was 223000 nM; in data set [23], greater than 100000 nM.

Take `O=C(NCc1ccncc1)C12CC3CC(C1)CC(c1ccc(Cl)cc1)(C3)C2` [ABC-294640]: the CC50 in the data set “in vitro [24]” is 28500 nM. For the same molecule, the EC50 in the data set on Influenza A virus [25] and with Influenza A virus [27] was 1780 nM in each case. Moreover, the Activity result in data set [26] was “Non-Toxic”.

Regarding `Cc1cccc(/C=N/Nc2cc(N3CCOCC3)nc(OCCc3ccccn3)n2)c1` [APILIMOD], the EC50 was found to be 23 nM in the data set with SARS-CoV-2 [28]; 23 nM with SARS-CoV-2 [29]; 10 nM in the data set with Marburgvirus [30]; 23 nM in the data set on SARS-CoV-2 [32]; 10 nM in the data set on Ebolavirus [35]. Moreover, the IC50 with Marburgvirus [31] and with Ebolavirus [33] was 10 nM each time. Moreover, the CC50 in the data set “in vitro [34]” is greater than 1000 nM.

With `CCS(=O)(=O)N1CC(CC#N)(n2cc(-c3ncnc4[nH]ccc34)cn2)C1` [BARICITINIB], inhibition in data set [36] was half-maximal at 17 nM (IC50). Further, the Activity with SARS-CoV-2 [37] and in the data set with SARS-CoV-2 [39] was 30% in each case. The CC50 was greater than 50000 nM in data set [38] and greater than 5000 nM in data set [40].

Regarding `Nc1nc(Nc2ccc3c(c2)CC[C@@H](N2CCCC2)CC3)nn1-c1cc2c(nn1)-c1ccccc1CCC2` [BEMCENTINIB], in the data set with Zika virus, the Activity came to 75%. The molecule further returned a CC50 in the data set “in vitro [41]” greater than 10000 nM.

The values above are taken from ChEMBL document CHEMBL5131375, “Recent Developments in the Use of Kinase Inhibitors for Management of Viral Infections” (J Med Chem, 2022).
